The nature of series [1]: MTT proliferation / drug combination assay, MDCKII-ABCG2. It counts as cell-based, canine. To be noted: dog, MDCKII-ABCG2 cells, 48 h, MTT, read-out: IC50, sensitivity to ensartinib. As to the method: (§1) MTT proliferation assay was performed as described previously.
The test system of a further series is MDCKII-ABCG2 cells. The series is described as above. It counts as cell-based, canine. On the procedure: as §1
A short description of series [2]: XTT proliferation / drug combination assay, HL60-ABCG2. Type of series: cell-based, human. The following applies: human, HL60-ABCG2 cells, 48 h, XTT, read-out: IC50, sensitivity to ensartinib. As to the method: (§2) The MTT method is not readily adapted for use with suspension cell cultures, therefore the XTT assay was used to assess the proliferation of HL60 cells. Briefly, HL60-par, HL60-ABCB1, HL60-ABCG2, and HL60-ABCC1 cells were seeded at 2 × 10^4 cells/well in 96-well culture plates. Immediately after seeding, dilutions of the tested drugs or drug combinations were added to the cells. The plates were then incubated under standard conditions (37 °C, 5% CO2) for 48 h, after which XTT solution in PBS (1 mg/mL) and phenazine methosulfate (7.50 µg/mL) were added to the cells and the plates were incubated for another 5 h. Finally, the cells’ absorbance was measured at 450 nm using a microplate reader (Infinite M200, Tecan, Salzburg, Austria). This method was used to assess the effect of ABC transporters on sensitivity to ensartinib and in drug combination assays.
(§3) Experiments focusing on the modulation of ABC transporter-mediated resistance were performed as described previously. The parent MDCKII and HL60 cells and their ABCB1-, ABCG2-, and ABCC1-overexpressing counterparts were seeded at the densities specified above onto 96-well culture plates and cultured for 24 h. The medium was subsequently replaced with serial dilutions of ensartinib alone or with various concentrations of a model MDR-susceptible cytostatic agent (daunorubicin or mitoxantrone) with or without 10 µM ensartinib. After 48 h incubation, the cells’ viability was determined as described above. In addition to performing IC50-shift analyses, the viability measurements were converted to FA (fraction of cells affected) values and the effects of drug combinations were quantified using the Chou-Talalay combination index (CI) method as implemented in CompuSyn 3.0.1 (ComboSyn Inc., Paramus, NJ, USA). The effects of concomitantly administered drugs were classified as synergistic (CI < 0.9), additive (0.9 < CI < 1.1), or antagonistic (CI > 1.1) based on the computed CI values.
Background: Tetrazolium dyes change colour on reduction, which living cells bring about.

A further series relates to HL60-ABCG2 cells. The series is described as above. Type of series: cell-based, human. As to the method: as §2, §3
Series [3] is described as follows: MTT proliferation assay, A431-ABCB1. Type of series: cell-based. The following applies: human, A431-ABCB1 cells, read-out: IC50, sensitivity to ensartinib. As to the method:
as §1

A further series relates to A431-ABCC1 cells. The series can be described thus: MTT proliferation assay, A431-ABCC1. The following applies: Homo sapiens, 48 h, read-out: IC50, sensitivity to ensartinib. It counts as cell-based. As to the method:
as §1

A further series deals with T1, ABCB1 (Homo sapiens, UniProt P08183).
T1 construct: expressed in transfected cells; host or cells: MDCKII-ABCB1 (from Dr. Alfred Schinkel, The Netherlands Cancer Institute)
T1 sequence (P08183 whole entry): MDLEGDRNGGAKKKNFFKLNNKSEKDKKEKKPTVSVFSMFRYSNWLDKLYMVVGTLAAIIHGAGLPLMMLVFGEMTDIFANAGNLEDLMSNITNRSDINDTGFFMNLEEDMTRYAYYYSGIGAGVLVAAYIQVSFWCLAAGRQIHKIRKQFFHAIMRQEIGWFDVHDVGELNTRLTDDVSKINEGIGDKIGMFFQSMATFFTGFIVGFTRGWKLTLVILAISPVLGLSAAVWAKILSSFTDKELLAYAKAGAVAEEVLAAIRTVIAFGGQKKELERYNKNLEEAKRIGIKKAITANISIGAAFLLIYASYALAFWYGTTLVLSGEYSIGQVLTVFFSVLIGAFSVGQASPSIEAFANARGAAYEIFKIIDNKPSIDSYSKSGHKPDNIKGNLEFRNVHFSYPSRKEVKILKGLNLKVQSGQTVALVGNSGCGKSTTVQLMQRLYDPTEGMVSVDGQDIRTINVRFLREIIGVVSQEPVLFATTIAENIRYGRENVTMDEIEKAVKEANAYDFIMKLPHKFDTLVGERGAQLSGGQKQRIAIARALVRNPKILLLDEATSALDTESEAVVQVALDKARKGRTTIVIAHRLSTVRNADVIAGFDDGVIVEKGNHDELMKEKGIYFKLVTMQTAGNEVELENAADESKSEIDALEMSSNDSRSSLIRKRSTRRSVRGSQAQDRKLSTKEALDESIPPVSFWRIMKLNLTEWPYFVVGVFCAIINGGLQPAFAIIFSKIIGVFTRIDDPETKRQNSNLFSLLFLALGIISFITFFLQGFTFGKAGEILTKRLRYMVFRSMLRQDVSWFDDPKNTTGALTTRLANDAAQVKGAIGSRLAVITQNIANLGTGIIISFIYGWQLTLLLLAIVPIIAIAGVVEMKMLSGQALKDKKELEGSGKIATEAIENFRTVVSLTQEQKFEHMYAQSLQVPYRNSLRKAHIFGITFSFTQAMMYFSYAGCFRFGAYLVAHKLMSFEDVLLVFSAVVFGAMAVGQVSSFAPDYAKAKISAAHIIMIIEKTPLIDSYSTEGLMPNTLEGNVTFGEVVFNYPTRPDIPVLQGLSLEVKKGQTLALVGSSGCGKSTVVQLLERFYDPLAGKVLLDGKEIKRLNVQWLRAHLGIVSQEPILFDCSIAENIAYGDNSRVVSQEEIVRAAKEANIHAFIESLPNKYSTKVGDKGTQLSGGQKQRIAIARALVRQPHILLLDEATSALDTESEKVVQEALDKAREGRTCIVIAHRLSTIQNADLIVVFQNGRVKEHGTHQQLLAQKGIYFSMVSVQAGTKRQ
The series can be described thus: MDCKII monolayer transport assay, MDCKII-ABCB1. The following applies: dog. It counts as in vitro ADME. On the procedure: Transport assays were performed on microporous polycarbonate membrane filters (3 µm pore size, 24 mm diameter, Transwell 3414; Costar, Corning, NY, USA) using MDCKII parental as well as ABCB1-, ABCG2-, and ABCC1-overexpressing MDCKII cells. The cells were seeded at a density of 1.5 × 10^6 cells per insert and cultured to full confluence for 7 days with media exchanges on the second and fourth days. Before the start of the transport experiments, inserts were washed with 1 × PBS on both the apical and basal sides. The cells were then preincubated in Opti-MEM with or without model inhibitors (1 µM LY335979, 1 µM Ko143, or 25 µM MK-571). […] Ensartinib levels in samples were measured by UHPLC-MS/MS (see below). […]
Samples from the monolayer transport assays (10 µL) were mixed with 100 µL of acetonitrile and 100 µL of methanol, vortexed for 15 min, and centrifuged at 14,500 rpm for 3 min. […] The MS source parameters were set to the following: drying gas, 320 °C, flow rate 10 l/min; sheath gas, 400 °C at 12 l/min; nebulizer pressure 25 psi; capillary voltage 4000 V; nozzle voltage 0 V. Transitions of [M+H]^+ ions were detected using a dwell time of 150 ms, a cell acceleration of 4 V, and fragmentor voltages of 137 V for 547→357, 257 and 120 transitions (corresponding to collision energies of 16, 32, and 56 V).

[4] abbreviates: 10 µM ensartinib with mitoxantrone.
Setting [5] is: mitoxantrone, IC50 single drug / IC50 combined with 10 µM ensartinib.

Where two headings read alike, the source gives them in different places.

`C[C@@H]1CN(C(=O)c2ccc(NC(=O)c3cc(O[C@H](C)c4c(Cl)ccc(F)c4Cl)c(N)nn3)cc2)C[C@H](C)N1` [ensartinib, Ensartinib]: the IC50 at 48 h in series [1] turned out to be 23.3 µM; in series [2] it was 24.3 µM; in series [3], 2.79 µM. The “combination effect (Chou-Talalay combination index)” value in the series with MDCKII-ABCG2 cells (setting [4]) and in the series on HL60-ABCG2 cells (setting [4]) was “synergistic (synergistic (CI < 0.9))” in each case. In addition, the “RR (reversal ratio)” value with MDCKII-ABCG2 cells (setting [5]) came out at 6.16; in the series with HL60-ABCG2 cells (setting [5]) it was 18.6. For the same compound, the IC50 in the series on A431-ABCC1 cells was 1.86 µM. For the same compound, the efflux ratio at 4 h, 1 µM on ABCB1 (MDCK-MDR1, 1 µM ensartinib, read-out: transport ratio (r), BA/AB) was 15.6; at ABCB1 (MDCK-MDR1, with LY335979, 1 µM ensartinib + 1 µM LY335979, read-out: transport ratio (r), BA/AB, with ABCB1 inhibitor) it was 1.05.

As a reminder, the IC50 is the point on the concentration scale where inhibition reaches its midpoint.

The values above are taken from paper PMC7226045, “Ensartinib (X-396) Effectively Modulates Pharmacokinetic Resistance Mediated by ABCB1 and ABCG2 Drug Efflux Transporters and CYP3A4 Biotransformation Enzyme” (Cancers, 2020).
